The results in this text go back to a melting point compilation (Tetko et al.; mined from patent text by program, amines drawn as free bases though some values may be those of a salt).

As usually defined, the melting point is the temperature, or range, at which the solid turns liquid. Regarding `CCCCCCCCCCCCNC(=O)Nc1sc(C(=O)O)c(C)c1C(=O)OC(C)(C)C`, the melting point lay in the range of 187 to 188 °C.
Turning to `Nc1c(SC(F)(F)F)c(C(=O)NC2CC2)nn1-c1c(Cl)cc(C(F)(F)F)cc1Cl`, the melting point came out at 193 °C.
Take `COC(=O)c1[nH]c(=O)n(C(=O)NCCCN2CCN(c3ccccc3OC)CC2)c1-c1ccc(F)c(F)c1`: the melting point lay in the range of 122 to 124 °C.
For the compound `Cc1cc(=O)n(-c2c(Cl)cc(C(F)(F)F)cc2Cl)[nH]1`, the melting point was 174 to 175 °C.
Turning to `c1ccc(COc2ccc3c(c2)OC[C@@H](c2ccccc2)[C@H]3c2ccc(OCCCCCCN3CCOCC3)cc2)cc1` (racemic), the melting point was 85.7 to 87.5 °C.
Consider `CC(C)c1c(C=O)c(-c2ccc(F)cc2)n2c1CCCC2`, for which the melting point lay in the range of 100 to 101 °C.
In turn, `CCOC(=O)C(=Nc1ccccc1)c1cccn1C` yielded a melting point of 69 to 71 °C.
Then `Cc1ccc2cccc(OCc3cc(N(C)C(=O)CN)ccc3Cl)c2n1`, with 82 to 87 °C.
On to `Cc1cc(-c2ccc(S(C)(=O)=O)cc2)n(-c2ccc(Br)cc2)c1C`, for which the melting point was in the range of 215 to 219 °C.
Then `CC(C)(C)SC[C@@H]1NC(=O)[C@@H](CSSC[C@@H]2NC(=O)[C@@H](CSC(C)(C)C)NC2=O)NC1=O`, with 278 °C; and `CCOC(=O)C1=C(C)NC(CSC(=O)CCC2CCCCC2)=C(C(=O)OCC)C1c1cccc([N+](=O)[O-])c1` (stereo not drawn), with 109 to 112 °C.
`COc1cccc(C2(C#N)CCN(C(=O)CN3CCN(c4cnccn4)CC3)CC2)c1` displayed a melting point of 108 °C.
In the case of `CCC(=O)Oc1cccc2c1C(=O)c1c(O)cccc1C2C(=O)CC` (stereo not drawn), the melting point is 125 °C.
On to `N#CC(N=Nc1cc(S(=O)(=O)Cl)ccc1OC(=O)c1ccccc1)=C(OC(=O)c1ccccc1)c1ccccc1`, for which the melting point fell in the range of 153 to 155 °C.
The compound `Cc1c(-c2ccncc2)[nH]c(-c2ccncc2)c1C(=O)OC(C)(C)C` yielded a melting point of 265 to 267 °C.
The compound `Nc1nc(C(F)(F)F)nc2c1ncn2C1OC(CO)C(O)C1O` (stereo not drawn) returned a melting point of 173 to 175 °C.
Turning to `COC1CCCC(C2NC(=O)C2C(C)O[Si](C)(C)C(C)(C)C)C1O` (stereo not drawn), the melting point lay in the range of 146 to 148 °C.
For `CCOC(=O)CCCCOc1ccc([N+](=O)[O-])c(C=C2C(=O)NC(=O)N2C)c1`, the melting point was 121 to 123 °C.
Then `CC(=O)c1c[nH]c2nccc(OCC3CCCCC3)c12`, with > 210 °C; and `O=c1ccoc(C(O)c2ccccc2F)c1OCc1ccccc1` (stereo not drawn), with 116 °C.
Consider `COc1cc(OC)c(C(=O)CCl)cc1C`, for which the melting point fell in the range of 166 to 167 °C.
For `COc1cc(N2CCN(C)CC2)ccc1-c1cnn2c(N)c(-c3cccc(O)c3)cnc12`, the melting point was in the range of 217 to 220 °C.
Then `CCCc1[nH]c2cc(C(=O)OC)ccc2c1C(=O)C1CCCCC1`, with 136 to 137 °C.
Consider `Cc1ncc([N+](=O)[O-])n1CCN(CCCCCCCCN(CCn1c([N+](=O)[O-])cnc1C)CCn1c([N+](=O)[O-])cnc1C)CCn1c([N+](=O)[O-])cnc1C`, for which the melting point lay within 157 to 158 °C.
The compound `S=C(NCc1ccc2c(c1)OCO2)N1CCc2c([nH]c3ccccc23)C1c1ccc2c(c1)OCO2` (stereo not drawn) gave a melting point of 97 to 100 °C.
On to `Cc1c(C(=O)O)oc2c(C(C)(C)C)cc(C(C)(C)C)c(O)c12`, for which the melting point lay within 241 to 243 °C.
The compound `CCc1c(Sc2cc(C)cc(C)c2)n(CC2CC=CC2)c(=O)[nH]c1=O` came in with a melting point of 128 to 130 °C.
For the compound `Fc1ccc(-n2ccc3cc(-c4nnn[nH]4)ccc32)cc1`, the melting point fell in the range of 224 to 225 °C.
Compound `COC(=O)c1ccc(Oc2ccc([N+](=O)[O-])cc2C(=O)OC)cc1` gave a melting point of 103 to 105 °C.
Then `COc1ccc(N(CC(=O)OC(C)(C)C)C(=O)CNC(=O)Nc2cccc(C)c2)cc1`, with 158 °C.
`CCOC(=O)/C=C/c1ccc(OCCOC)cc1OCc1ccc(Cl)cc1Cl` registered a melting point of 101 °C.
`COC1=CC(C)=NN(NC(=O)N=NS(=O)(=O)C2SCCN2OCC=CCl)N1` (stereo not drawn) gave a melting point of 145 to 147 °C.
In turn, `O=C(NC1CCCn2c1nc(-c1ccncc1)cc2=O)Oc1ccccc1` (racemic) showed a melting point of 193 to 195 °C.
`CSc1ccc(C(=O)Nc2ccc3ccc(Cl)nc3n2)cc1` returned a melting point of 199 °C.
With `CC12CC=C3C(CCC4(CCC#N)CC(O[Si](C)(C)C(C)(C)C)CCC34C)C1CCC2O[Si](C)(C)C(C)(C)C` (stereo not drawn), the melting point was 194 to 195 °C.
Then `O=C(O)c1cn2c3c(cccc3c1=O)CCC2`, with 256 to 258 °C; and `O=C(CBr)OCCCCOC(=O)CBr`, with 62 to 62.5 °C; and `COc1cc2c3ccc(OC)c(OC)c3n(C(=O)c3ccc(C(C)(C)C)cc3)c2cc1OC`, with 129 to 131 °C.
As for `CCCc1c(OCCCOc2ccc(CC(=O)O)cc2Br)ccc(C(C)=O)c1O`, the melting point fell in the range of 111 to 112 °C.
As for `CN1CCN(C(=O)c2ccc(-c3cnc4c(c3)N(Cc3cc(F)ccc3F)C(=O)C(C)(C)N4)cc2)CC1`, the figure is 204 to 206 °C; as for `Cc1cc(CNC(=O)c2nc3n(c(=O)c2OCc2ccccc2)CCN3c2ccccc2)ccc1F`, 147 °C.
Consider `NC(=O)c1cc2n(n1)-c1ccc(Cl)cc1C(c1ccccc1)=NC2`, for which the melting point is 216 to 218 °C.
Then `CCCCc1nn(-c2cc(NC(=O)c3ccccc3)ccc2C(F)(F)F)c(=O)n1Cc1ccc(-c2ccccc2S(=O)(=O)NC(=O)OC(C)(C)C)cc1F`, with 117 to 120 °C; and `CCOC(=O)c1c(Cl)nc2ccsc2c1Cl`, with 73 °C; and `O=S(=O)(Oc1ccc(Cl)c2cccnc12)C(F)(F)F`, with 80 to 83 °C.
Regarding `CN1c2ccccc2CC1COc1ccc(CC2SC(=O)N(C(c3ccccc3)(c3ccccc3)c3ccccc3)C2=O)cc1` (stereo not drawn), the melting point was in the range of 62.5 to 65.5 °C.
`COc1cc(C)c(O)c(C(=O)NCCc2ccc(N=C(N)c3cccs3)cc2)c1` displayed a melting point of 175 to 176 °C.
Compound `CCc1cnc(N2CCN(C(=O)c3ccc(CNc4nc(-c5ccccc5)nc5ccccc45)cc3)CC2)nc1` yielded a melting point of 207 to 208 °C.
In the case of `C[C@H](c1ccccc1)N1CCO[C@@H](c2ccc(Br)cc2)C1`, the melting point lay within 85 to 87 °C.
As for `O=C(CCCCl)Nc1n[nH]c2cc(Cl)ccc12`, the figure is 220 °C; as for `COc1cc(C2CC(=O)OC(=O)C2)cc2c(C)c(C)oc12`, 194 to 195 °C.
The compound `C=CCn1c(=O)n(CCN2CCN(c3ccccc3OC)CC2)c(=O)c2cscc21` showed a melting point of 131 to 132 °C.
The compound `O=C(O)CCn1c(=O)n(CCN2CCN(c3ccc(F)cc3)CC2)c(=O)c2cscc21` had a melting point of 202 to 203 °C.
Then `CCOC(=O)C(C#N)=Cc1ccc(NC(=O)CC[Si](C)(C)C)cc1`, with 157 °C; and `CCC(C#N)(C#N)Cc1ccc(Cl)cc1`, with 70.9 °C; and `NC(=O)Cc1cc(Oc2ccc3c(ccn3C(=O)Nc3ccc(CN4CCNCC4)c(C(F)(F)F)c3)c2)ncn1`, with 173 to 180 °C.
`CCc1nc2c(N)nc3cccnc3c2n1CC1(O)CCN(C(=O)OC(C)(C)C)CC1` returned a melting point of 233 to 235 °C.
As for `COc1ccc(C(C)C)cc1-c1cc(-c2nnnn2C2CCN(C(=O)CC(C)C)CC2)c(O)cc1O`, the figure is 220 to 224 °C.
`CCN(CC)c1ccc(N2C[C@H](CNC(=O)c3ccc(Cl)s3)OC2=O)cc1`: the melting point came to 181 °C.
For `COc1ccc(-c2cc(=O)n(-c3ccccn3)nc2C)cc1`, the melting point lay within 156 to 157 °C.
In turn, `COc1ccc2c(c1F)OCc1c(C(F)(F)F)nn(-c3ccc(S(N)(=O)=O)cc3)c1-2` gave a melting point of 133 to 138 °C.
Compound `COC(=O)c1cc(C)sc1NC(=O)Cc1ccccc1` displayed a melting point of 107 to 109 °C.
`Cc1[nH]c(C(=O)N2CC=CN2)c(C)c1-c1nc2ccc(C(=O)c3ccccc3)cc2[nH]1` returned a melting point of 148 to 150 °C.
Then `CC(=O)OCc1nccc2[nH]c(=O)ccc12`, with 162 to 165 °C; and `NC1=NS(=O)N=C1NCCCNc1ccc(Br)cn1` (stereo not drawn), with 215 to 216 °C.
In the case of `Nc1c(-c2nc(-c3ccco3)n[nH]2)nnn1Cc1ccc(F)cc1`, the melting point lay within 200 to 202 °C.
On to `CSc1ccc(CSc2cccc(C(=O)Nc3ccc(C#N)cn3)c2)cc1`, for which the melting point lay within 161 to 162 °C.
In turn, `CC(=O)OC1COC(SCCCCCCOC2CCC3(C)C(=CCC4C3CCC3(C)C(C(C)CCCC(C)C)CCC43)C2)C(OC(C)=O)C1OC(C)=O` (stereo not drawn) gave a melting point of 106 to 108 °C.
As for `CS(=O)(=O)c1ccc(C(CC2CCCC2)C(=O)Nc2nc3ccccc3s2)cc1C#N` (stereo not drawn), the figure is 115 to 118 °C; as for `O=C1Nc2ccccc2C12CCCCC2`, 164 to 165 °C; as for `COc1cc(C(=O)N2CCN(C(=O)/C=C(\c3ccc(F)cc3)c3cc(OC)c(OC)c(OC)c3)CC2)cc(OC)c1OC`, 130 to 132 °C.
The compound `CCNCC1CCN(c2c(F)c(F)c3c(=O)c(C(=O)O)cn(C4CC4)c3c2F)C1` (stereo not drawn) returned a melting point of 247 to 248 °C.
In the case of `COc1ccc(NC(C)C)c(S)c1`, the melting point lay in the range of 68 to 69 °C.
`COC(=O)C(=O)c1ccc(OCCOc2ccc(S(N)(=O)=O)cc2)cc1` registered a melting point of 136 to 137 °C.
With `COc1cc2c(cc1O)C(=O)C1c3c(cc(OC(C)C)c(OC)c3-2)CCN1C` (stereo not drawn), the melting point lay in the range of 240 to 242 °C.
As for `C=CC(O)(C(CCCCOc1ccccc1)n1cncn1)C(C)(C)C` (stereo not drawn), the figure is 66 to 69 °C.
As for `Cc1ccnc(NC(c2ccc(C(F)(F)F)cc2)c2ccc3cccnc3c2O)c1` (stereo not drawn), the figure is 104 to 107 °C; as for `O=c1cc(NCCN2CCN(c3ccc(F)cc3)CC2)cn[nH]1`, 96 to 98 °C.
In turn, `CN(C)C1(c2cccs2)CCC(=O)CC1` yielded a melting point of 102 to 103 °C.
Then `O=C(NCCCCOc1ccc(-c2ccc(=O)[nH]n2)cc1)c1cccnc1`, with 155 to 157 °C; and `CCCN=C(N)Nc1ccnc(C(CCC)C(=N)N)n1` (stereo not drawn), with 202 to 205 °C; and `COc1cc(C(=O)N2CCC(CCN3CCCN(c4nc5ccccc5n4CCCC(C)=O)CC3)(c3ccccc3)C2)cc(OC)c1OC` (stereo not drawn), with 95 to 112 °C.
As for `CC(C)(C)c1cc(Oc2ccc([N+](=O)[O-])c(O)c2)ccc1Oc1ccc([N+](=O)[O-])c(O)c1`, the figure is 156 to 158 °C.
